Marks after values point to notes of the source that are not given here.
Tested on: broiler chickens
Assay: Effect of iron source and level on hemoglobin, hematocrit, performance and iron bioavailability (slope-ratio) of iron-depleted broiler chicks
Assay type: in vivo
Conditions: for Efficiency / Gain / Hematocrit / Intake: from day 7
Method: Experiments were conducted to determine the effect of trace mineral level and source on hemoglobin, hematocrit and performance of broiler chickens. Bioavailability of iron was determined by the common-intercept multiple linear regression (slope-ratio) method (S. Aoyagi and D. H. Baker, Nutritional evaluation of a copper-methionine complex for chicks, Poult. Sci. 1993; 72:2309-15). For the first 7 days, chicks were fed a semi-purified diet based on dextrose, corn starch and casein (see Table 1), but with a low level of corn in order to encourage food intake. The calculated iron concentration was 25 ppm and the adaptation period was done in order to deplete iron stores received via the egg.
Beginning on day 7, chicks were provided experimental diets containing the three iron sources added to the basal diet as tabulated below. The three iron sources are commercial grade iron sulphate (FeSO4) (Comparative Example A), siderite (Comparative Example B) and agglomerated particles of starch and crystallites of iron(II) carbonate (Example 1; in accordance with the disclosure) (see Table 2). The agglomerated particles were prepared by grinding siderite to a d90 value below 5 subsequently mixing the ground iron(II) carbonate, starch and water, and spray drying the dispersion. The resulting agglomerated particles have a mean particle size of […]; the content of iron(II) carbonate is 36.94 wt %, based on the total weight of the agglomerated particles.
Birds were raised in Petersime batteries and all metal (feeders, waterers, raised wire floors) in contact with the birds was stainless steel. Water was deionized.
Statistical Analysis: Hemoglobin, hematocrit and performance data were regressed against dietary iron level for each source to obtain linear dose response relationships and bioavailability was calculated from the ratio of the slopes to that of FeSO4. Data (excluding the basal treatment) was also analyzed as a […]×4 level factorial arrangement of treatments. Slope ratios were calculated using the 0, 15, and 25 ppm added levels.

[1] = 15 ppm added iron in basal diet
[2] = 25 ppm added iron in basal diet

O=S(=O)([O-])[O-].[Fe+2] [Comparative Example A, iron sulphate (FeSO4)] gave an Efficiency [1] of 0.59 gain/feed, a Gain [1] of 523.9 g/chick and a Hematocrit [1] of 38.3%. It also gave an Intake [1] of 888.2 g/chick, an Efficiency [2] of 0.62 gain/feed and a Gain [2] of 548.5 g/chick. The Hematocrit [2] was 37.2%, the Intake [2] was 884.0 g/chick and the “Efficiency, main effect mean for iron source” value (across all levels) was 0.61 gain/feed. For the same compound, the “Gain, main effect mean for iron source” value (across all levels) was 531.8 g/chick, the “Hematocrit, main effect mean for iron source” value (across all levels) was 37.3% and the “Intake, main effect mean for iron source” value (across all levels) was 867.5 ^a g/chick.
